Data: patent US20260294946A1, “METHOD TO REDUCE FEED CONVERSION RATIO IN A FARMED ANIMAL” (Inbiose N.V., priority 2023, published 2026)

What was measured:
Format in all cases: in vivo
Blautia obeum = assay: Fecal samples of piglets, 16S rRNA sequencing
Description: (§1) On d22, from one piglet per pen (piglet with median weight at weaning) a fresh feces sample was collected and stored at −80° C. Total fecal DNA of 16 selected piglets (1 per pen) were extracted from 200 mg feces. ZymoBIOMICS™ DNA miniprep kit (Zymo Research) in combination with a FASTPREP® 24 device was used to extract and purify the microbial DNA as instructed by the manufacturer. Purified total DNA were eluted in 100 μl and were quickly checked for the concentration and quality using Nanodrop (Implen NANOPHOTOMETER®) before storage at −20° C.
(§2) Total DNA were submitted to Eurofins (GATC, Germany) to perform 16S rRNA sequencing using their INVIEW microbiome high specificity package. Briefly, total DNA were first amplified the hyper-variable regions 16S and integrated the barcodes through PCR. The PCR products were purified, then ligated with adapter for library preparation. The sequencing was done using PacBio sequencing technology, guaranteed for 25000 reads, mean read length […].
(§3) Amplicon analysis was performed using Mothur pipeline (mothur.org). Processing of the raw sequencing data was done according to the Mothur standard operating procedure (mothur.org/wiki/MiSeq_SOP). Alignment was accomplished using DAIRYdb 16S rRNA gene database (GitHub—marcomeola/DAIRYdb). Sequences were classified and any sequences classified as Chloroplast, Mitochondria, unknown, Archaea, or Eukaryota were removed from the data set. Preclustering of the sequences and removal of chimeric sequences using a Mothur-formatted version of the Ribosomal Database Project (RDP) training set and uchime, based on the Mothur protocol. Sequences were classified into Operational Taxonomic Units (OTUs) of ≥97% sequence identity. Singleton and doubleton reads were removed.
(§4) Data statistics of 16S data and figure plotting were performed in RStudio (rstudio.com/). Microbiome data was normalized in relative abundance or cpm (counts per million). The treatment effect of 2′FL in the microbiome abundance data was evaluated on normalized relative abundance (in %) using Mann-Whitney U test.

[1] = test system: Faecalibacterium prausnitzii; assay: Fecal samples of piglets, 16S rRNA sequencing
Description: as §1, §2, §3, §4

Prevotella Sp. RS2 = assay: Fecal samples of piglets, 16S rRNA sequencing
Description: as §1, §2, §3, §4

Lactobacillus mucosae = assay: Fecal samples of piglets, 16S rRNA sequencing
Description: as §1, §2, §3, §4

Eubacterium rectale = assay: Fecal microbiota of calves, shotgun metagenomics; conditions: T1 (W 5), versus placebo calves, score = −log 10(pvalue)*sign(coef)
Description: (§5) Stools were collected directly from recta of six calves in one selected pen upon rectal inducing at day 29 (W5) and day 57 (W9). The fecal samples (approximately 1 g) were immediately snap frozen using isopropanol-dried ice bath for 1 minute before they were transferred onto dried ice for transportation to a long-term storage at −80° C.
(§6) Total fecal DNA was extracted from 200 mg feces while total upper respiratory tract microbial DNA were extracted from 1 ml DNA shield reagent containing the nasal pharyngeal swab. ZymoBIOMICS™ DNA miniprep kit (Zymo Research) in combination with a FASTPREP® 24 device was used to extract and purify the microbial DNA as instructed by the manufacturer. Purified total DNA were eluted in 100 μl and were quickly checked for the concentration and quality using Nanodrop (Implen NANOPHOTOMETER®) before storage at −20° C.
(§7) Total DNA were submitted to Eurofins (GATC, Germany) to perform metagenomics using their INVIEW metagenome platform. Briefly, total DNA were first fragmented, then ligated with adapter for library preparation. The sequencing was done using Illumina paired end sequencing technology (2×150 bp), guaranteed for 20 million read pairs (40 million reads). Reads were quality-checked with fastqc (bioinformatics.babraham.ac. uk/projects/fastqc/) and trimmed with Trimmomatic (Bolger et al., 2014, Bioinformatics, 30(15): p. 2114-2120; usadellab.org/cms/?page=trimmomatic). Bovine reads were removed by mapping to the cow reference database Bos_taurus_UMD_3.1.1 using BMTagger (bioconda.github.io/recipes/bmtagger/README.html). Profiling of the taxonomic composition and the functional potential of microbial communities was done using Metaphlan (Beghini et al., 2021, Elife 10: e65088; /huttenhower.sph.harvard.edu/humann/).
(§8) Microbiome data was normalized in cpm (counts per million).
(§9) The treatment effect of MMOs in the microbiome data was evaluated per timepoint with Maaslin2 (Mallick et al., 2021, PLoS Computational Biology 17(11): e1009442) using AST transformation and adding compartment as fixed effect. For visualization in the tables a score was calculated equal to −log 10(pvalue)*sign(coef). Spearman correlation was used to evaluate the relation between microbiome and FCR using the cor.test function in the stats package in R.

Bacteroides coprophilus = assay: Fecal microbiota of calves, shotgun metagenomics; conditions: T2 (W 9), versus placebo calves, score = −log 10(pvalue)*sign(coef)
Description: as §5, §6, §7, §8, §9

Prevotella copri = assay: Fecal microbiota of calves, shotgun metagenomics; conditions: T1 (W 5), versus placebo calves, score = −log 10(pvalue)*sign(coef)
Description: as §5, §6, §7, §8, §9

Ruminococcus bromii = assay: Fecal microbiota of calves, shotgun metagenomics; conditions: T2 (W 9), versus placebo calves, score = −log 10(pvalue)*sign(coef)
Description: as §5, §6, §7, §8, §9

Atopobium deltae = assay: Fecal microbiota of calves, shotgun metagenomics; conditions: T1 (W 5), versus placebo calves, score = −log 10(pvalue)*sign(coef)
Description: as §5, §6, §7, §8, §9

[2] = test system: Bacteroides pectinophilus; assay: Fecal microbiota of calves, shotgun metagenomics; conditions: T2 (W 9), versus placebo calves, score = −log 10(pvalue)*sign(coef)
Description: as §5, §6, §7, §8, §9

With 2′-fucosyllactose [2′FL] the effect on abundance (Blautia obeum; d 22) was “promoted”, the “Relative abundance in fecal samples” value (Blautia obeum; weaning day (d 22), P=0.0428 vs control) was 0.1672% and the effect on abundance ([1]; d 22) was “promoted”. The “Relative abundance in fecal samples” value ([1]; weaning day (d 22), P=0.00965 vs control) was 0.278%, the effect on abundance (Prevotella Sp. RS2; d 22) was “inhibited” and the “Relative abundance in fecal samples” value (Prevotella Sp. RS2; weaning day (d 22), P=0.0129 vs control) was 0.1093%. For the same substance, the effect on abundance (Lactobacillus mucosae; d 22) was “promoted”, the “Relative abundance in fecal samples” value (Lactobacillus mucosae; weaning day (d 22), P=0.0263 vs control) was 0.1586% and the “Significant change in counts per million (cpm) of bacteria species (score)” value (“Significant change in counts per million” for short) (Eubacterium rectale) was 1.35. The “Significant change in counts per million” value (Bacteroides coprophilus) was −1.56, the “Significant change in counts per million” value (Prevotella copri) was −1.68 and the “Significant change in counts per million” value (Ruminococcus bromii) was 1.65. For the same substance, the “Significant change in counts per million” value (Atopobium deltae) was −1.44 and the “Significant change in counts per million” value [2] was 1.35.
